Source: article PMC8855934 (Journal of medicinal chemistry, 2021)
Changes are numbered by the printed parent chain.

Legend:
VCaP cell line = experiment: Cell growth inhibition in the VCaP cell line; assay type: cell-based, human
AR T878A mutant protein = target: T1, AR T878A mutant protein (Homo sapiens, UniProt P10275, T878A)
T1 sequence (P10275 1-920 T878A): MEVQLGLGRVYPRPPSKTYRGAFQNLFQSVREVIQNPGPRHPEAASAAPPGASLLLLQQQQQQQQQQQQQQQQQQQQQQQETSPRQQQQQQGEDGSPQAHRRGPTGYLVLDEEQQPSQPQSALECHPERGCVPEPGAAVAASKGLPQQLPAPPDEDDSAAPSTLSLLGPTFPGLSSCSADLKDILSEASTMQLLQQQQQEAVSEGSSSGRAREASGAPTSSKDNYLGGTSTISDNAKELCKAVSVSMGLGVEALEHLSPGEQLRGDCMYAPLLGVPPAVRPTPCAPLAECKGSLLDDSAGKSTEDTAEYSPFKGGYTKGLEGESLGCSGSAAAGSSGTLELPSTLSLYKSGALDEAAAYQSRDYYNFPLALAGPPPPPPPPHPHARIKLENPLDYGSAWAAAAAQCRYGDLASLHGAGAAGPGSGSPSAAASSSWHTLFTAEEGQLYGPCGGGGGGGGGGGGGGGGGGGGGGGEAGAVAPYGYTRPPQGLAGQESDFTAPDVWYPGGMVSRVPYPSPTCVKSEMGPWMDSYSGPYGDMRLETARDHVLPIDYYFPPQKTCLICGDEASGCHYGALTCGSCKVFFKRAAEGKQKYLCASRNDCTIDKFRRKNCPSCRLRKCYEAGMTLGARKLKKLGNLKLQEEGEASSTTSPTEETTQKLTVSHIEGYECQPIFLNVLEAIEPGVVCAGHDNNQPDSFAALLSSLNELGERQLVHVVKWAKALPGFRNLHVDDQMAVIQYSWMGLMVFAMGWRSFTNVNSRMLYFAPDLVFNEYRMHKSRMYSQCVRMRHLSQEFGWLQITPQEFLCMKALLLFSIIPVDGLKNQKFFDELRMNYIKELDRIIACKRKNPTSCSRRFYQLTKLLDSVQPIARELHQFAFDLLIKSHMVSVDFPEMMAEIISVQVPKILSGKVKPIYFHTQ

[1] = target: T2, AR double mutations (L702H and T878A) (Homo sapiens, UniProt P10275, L702H/T878A); details: MDA-PCa-2b, 24 h, Figure 7
T2 sequence (P10275 1-920 L702H/T878A): T1 sequence (P10275 1-920 T878A) with L702H

AR protein [2] = target: T3, AR protein (Homo sapiens, UniProt P10275); details: single oral administration 20 mg/kg, 6 and 24 h time-points, Western blotting
T3 sequence (P10275 1-920): T1 sequence (P10275 1-920 T878A) with A878T

Pharmacokinetics in mice = assay type: in vivo; details: male, mouse, in vivo
[3] = Tissue distribution studies of ARD-2585 in mice bearing VCaP tumors; assay type: in vivo; details: male, SCID, mouse, po, 20 mg/kg
[4] = tested on: AR protein (22Rvl cell line with F876L mutation); experiment: AR degradation in 22Rv1 cell line; assay type: cell-based, human; details: 22Rv1, 24 h
AR protein [5] = target: T3, AR protein; experiment: AR degradation in VCaP cell line; assay type: cell-based

SMILES | times less potent than compounds 35 and 36 (cell growth inhibition) (VCaP cell line) | Dmax, AR degradation in LNCaP cell line (AR T878A mutant protein; LNCaP cell line (AR T878A), Western blotting, listed as ARD-2585) [%] | reduction of AR protein (mechanism study) (AR T878A mutant protein; LNCaP cells, 100 nM, 3 h treatment) | reduction of AR protein level (degradation kinetics) (AR T878A mutant protein; LNCaP, 1 h) | concentration as low as which AR protein level is reduced by >80% [1] [nM] | reduction of AR protein level in VCaP tumor tissue (AR protein [2]) | Vd (Pharmacokinetics in mice; iv, 2 mg/kg) [L/kg] | clearance (Pharmacokinetics in mice; iv, 2 mg/kg) [mL/min/kg] | half-life (Pharmacokinetics in mice; iv, 2 mg/kg) [min] | AUC(0-t) (Pharmacokinetics in mice; po, 3 mg/kg) [ng·h/mL] | concentration at 6 h ([3]; plasma) [ng/mL] | concentration at 24 h ([3]; plasma) [ng/mL] | concentration at 24 h ([3]; prostate) [ng/g] | Dmax, AR degradation in 22Rv1 cell line [4] [%] | Dmax, AR degradation in VCaP cell line (AR protein [5]; VCaP cell line, 24 h treatment, Western blotting, listed as ARD-2585) [%] | reduction of AR protein (mechanism study) (AR protein [5]; VCaP cells, 100 nM, 3 h treatment) | reduction of AR protein level (degradation kinetics) (AR protein [5]; VCaP, 1 h)
N#Cc1ccc(N[C@H]2CC[C@H](NC(=O)c3ccc(N4CCC(N5CCN(c6ccc7c(c6)C(=O)N(C6CCC(=O)NC6=O)C7=O)CC5)CC4)cc3)CC2)cc1Cl (stereo partly drawn) [Compound 34, N-(1R,4R)-4-(((3-Chloro-4-cyanophenyl)amino)cyclohexyl)-4-(4-(4-(2-(2,6-dioxopiperidin-3-yl)-1,3-dioxoisoindolin-5-yl)piperazin-1-yl)piperidin-1-yl)benzamide] | ~10 |  |  |  |  |  |  |  |  |  |  |  |  |  |  |  | 
CCCN(c1ccc(C#N)c(Cl)c1)[C@H]1CC[C@H](NC(=O)c2ccc(N3CCC(N4CCN(c5ccc6c(c5)C(=O)N(C5CCC(=O)NC5=O)C6=O)CC4)CC3)cc2)CC1 (stereo partly drawn) [Compound 37, N-(1R,4R)-4-(((3-Chloro-4-cyanophenyl)(propyl)amino)-cyclohexyl)-4-(4-(4-(2-(2,6-dioxopiperidin-3-yl)-1,3-dioxoisoindolin-5-yl)piperazin-1-yl)piperidin-1-yl)benzamide] | > 40 |  |  |  |  |  |  |  |  |  |  |  |  |  |  |  | 
CN(c1ccc(C#N)c(Cl)c1)[C@H]1CC[C@H](NC(=O)c2ccc(N3CCN(C4CN(c5ccc6c(c5)C(=O)N(C5CCC(=O)NC5=O)C6=O)C4)CC3)cc2)CC1 (stereo partly drawn) [Compound 43, N-(1R,4R)-4-(((3-Chloro-4-cyanophenyl)(methyl)amino)-cyclohexyl)-4-(4-(1-(2-(2,6-dioxopiperidin-3-yl)-1,3-dioxoisoindolin-5-yl)azetidin-3-yl)piperazin-1-yl)benzamide] |  | > 98 | effectively reduces | effectively reduce | 1 | effective | 1.8 to 2.1 | 3.33 to 5 | 330 to 450 | 8640 | 134 ± 98 | 214 ± 78 | 109 ± 23 | > 95 | > 98 | effectively reduces | effectively reduce
